Laboratory results from patent publication US20090018134A1, “Compounds - 945” (AstraZeneca AB, priority 2007, published 2009).

Target: T1, mTOR (Homo sapiens, UniProt P42345)
T1 construct: FLAG; made in house
Experiment: In Vitro mTOR Kinase Assay (Echo), Test (a)(ii)
Type: biochemical
Conditions: table of enzyme assay Test (a)(ii); read-out: Test (a)(ii) IC50
How it was run: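 FLAG-tagged human mTOR truncation (residues 1362-2549) expressed in HEK293 cells and FLAG-purified. Compounds dispensed acoustically, reaction 2 h at room temperature, stopped with EDTA. Phosphorylation of biotinylated peptide detected by AlphaScreen with anti-p70 S6K (T389) antibody overnight; IC50 reported.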

T1 sequence (P42345 1362-2549): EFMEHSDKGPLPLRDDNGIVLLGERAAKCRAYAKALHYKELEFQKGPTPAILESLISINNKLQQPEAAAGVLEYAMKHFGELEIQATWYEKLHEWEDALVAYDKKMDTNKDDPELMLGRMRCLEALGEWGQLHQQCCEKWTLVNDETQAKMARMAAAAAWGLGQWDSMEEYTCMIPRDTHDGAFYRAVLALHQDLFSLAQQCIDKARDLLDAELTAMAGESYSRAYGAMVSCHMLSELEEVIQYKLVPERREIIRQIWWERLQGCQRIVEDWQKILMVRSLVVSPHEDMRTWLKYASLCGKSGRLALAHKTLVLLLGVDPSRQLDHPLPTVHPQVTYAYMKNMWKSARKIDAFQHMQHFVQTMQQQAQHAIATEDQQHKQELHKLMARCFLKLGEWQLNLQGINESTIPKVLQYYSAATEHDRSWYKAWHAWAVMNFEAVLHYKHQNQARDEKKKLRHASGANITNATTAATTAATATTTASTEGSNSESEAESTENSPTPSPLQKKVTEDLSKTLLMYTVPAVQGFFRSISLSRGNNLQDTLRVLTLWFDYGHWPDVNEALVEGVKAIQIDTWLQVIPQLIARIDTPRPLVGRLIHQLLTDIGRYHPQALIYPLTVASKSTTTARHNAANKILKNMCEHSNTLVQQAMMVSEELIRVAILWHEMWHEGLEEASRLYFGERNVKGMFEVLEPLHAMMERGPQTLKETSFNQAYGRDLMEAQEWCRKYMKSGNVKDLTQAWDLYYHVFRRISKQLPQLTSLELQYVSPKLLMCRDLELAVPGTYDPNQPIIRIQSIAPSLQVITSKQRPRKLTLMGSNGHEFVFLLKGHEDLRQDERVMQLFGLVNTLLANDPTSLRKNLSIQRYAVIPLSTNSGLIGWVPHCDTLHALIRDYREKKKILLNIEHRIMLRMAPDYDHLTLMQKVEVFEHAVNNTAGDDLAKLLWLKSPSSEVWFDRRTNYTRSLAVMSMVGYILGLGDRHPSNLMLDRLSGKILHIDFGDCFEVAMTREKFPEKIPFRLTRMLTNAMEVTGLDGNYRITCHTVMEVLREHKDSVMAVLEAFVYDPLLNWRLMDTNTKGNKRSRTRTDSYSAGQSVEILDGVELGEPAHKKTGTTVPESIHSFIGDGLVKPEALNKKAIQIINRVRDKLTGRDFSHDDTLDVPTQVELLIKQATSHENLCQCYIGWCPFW

Row | SMILES | IC50 [nM]
1 | O=C(NCCO)Nc1ccc(-c2nc(N3CCOCC3)cc(C3(S(=O)(=O)c4ccncc4)CC3)n2)cc1 [Example 36ar, 3-(2-hydroxyethyl)-1-[4-[4-morpholin-4-yl-6-(1-pyridin-4-ylsulfonylcyclopropyl)pyrimidin-2-yl]phenyl]urea] | 9.45
2 | Cn1cc(NC(=O)Nc2ccc(-c3nc(N4CCOCC4)cc(C4(S(=O)(=O)c5ccncc5)CC4)n3)cc2)cn1 [Example 36as, 1-(1-methylpyrazol-4-yl)-3-[4-[4-morpholin-4-yl-6-(1-pyridin-4-ylsulfonylcyclopropyl)pyrimidin-2-yl]phenyl]urea] | 9.11
3 | CNC(=O)Nc1ccc(-c2nc(N3CCOCC3)cc(C3(S(=O)(=O)c4ccncc4)CC3)n2)cc1 [Example 36at, 1-methyl-3-[4-[4-morpholin-4-yl-6-(1-pyridin-4-ylsulfonylcyclopropyl)pyrimidin-2-yl]phenyl]urea] | 6.39
4 | CCNC(=O)Nc1ccc(-c2nc(N3CCOCC3)cc(C3(S(=O)(=O)c4ccncc4)CC3)n2)cc1 [Example 36au, 1-ethyl-3-[4-[4-morpholin-4-yl-6-(1-pyridin-4-ylsulfonylcyclopropyl)pyrimidin-2-yl]phenyl]urea] | 12.1
5 | O=C(Nc1ccc(-c2nc(N3CCOCC3)cc(C3(S(=O)(=O)c4ccncc4)CC3)n2)cc1)NC1CC1 [Example 36av, 3-cyclopropyl-1-[4-[4-morpholin-4-yl-6-(1-pyridin-4-ylsulfonylcyclopropyl)pyrimidin-2-yl]phenyl]urea] | 9.95
6 | N#CCCNC(=O)Nc1ccc(-c2nc(N3CCOCC3)cc(C3(S(=O)(=O)c4ccncc4)CC3)n2)cc1 [Example 36aw, 3-(2-cyanoethyl)-1-[4-[4-morpholin-4-yl-6-(1-pyridin-4-ylsulfonylcyclopropyl)pyrimidin-2-yl]phenyl]urea] | 16.4
7 | O=C(NCCCO)Nc1ccc(-c2nc(N3CCOCC3)cc(C3(S(=O)(=O)c4ccncc4)CC3)n2)cc1 [Example 36ax, 3-(3-hydroxypropyl)-1-[4-[4-morpholin-4-yl-6-(1-pyridin-4-ylsulfonylcyclopropyl)pyrimidin-2-yl]phenyl]urea] | 21.1
8 | C[C@H]1COCCN1c1cc(C2(S(=O)(=O)c3ccccc3)CC2)nc(-c2ccc(NC(=O)NCC(O)C(F)(F)F)cc2)n1 (stereo partly drawn) [Example 36be, 1-[4-[4-[1-(benzenesulfonyl)cyclopropyl]-6-[(3S)-3-methylmorpholin-4-yl]pyrimidin-2-yl]phenyl]-3-(3,3,3-trifluoro-2-hydroxypropyl)urea] | 3.76
9 | CC(C)NC(=O)Nc1ccc(-c2nc(N3CCOC[C@@H]3C)cc(C3(S(=O)(=O)c4ccccc4)CC3)n2)cc1 [Example 36bf, 1-[4-[4-[1-(benzenesulfonyl)cyclopropyl]-6-[(3S)-3-methylmorpholin-4-yl]pyrimidin-2-yl]phenyl]-3-propan-2-ylurea] | 4.57
10 | C[C@H]1COCCN1c1cc(C2(S(=O)(=O)c3ccccc3)CC2)nc(-c2ccc(NC(=O)NC(C)(C)CO)cc2)n1 [Example 36bk, 1-[4-[4-[1-(benzenesulfonyl)cyclopropyl]-6-[(3S)-3-methylmorpholin-4-yl]pyrimidin-2-yl]phenyl]-3-(1-hydroxy-2-methylpropan-2-yl)urea] | 4.33
11 | C[C@H]1COCCN1c1cc(C2(S(=O)(=O)c3ccccc3)CC2)nc(-c2ccc(NC(=O)NCc3ncc[nH]3)cc2)n1 [Example 36bn, 1-[4-[4-[1-(benzenesulfonyl)cyclopropyl]-6-[(3S)-3-methylmorpholin-4-yl]pyrimidin-2-yl]phenyl]-3-(1H-imidazol-2-ylmethyl)urea] | 6.37
12 | C[C@H]1COCCN1c1cc(C2(S(=O)(=O)c3ccccc3)CC2)nc(-c2ccc(NC(=O)NC3(CO)CC3)cc2)n1 [Example 36bo, 1-[4-[4-[1-(benzenesulfonyl)cyclopropyl]-6-[(3S)-3-methylmorpholin-4-yl]pyrimidin-2-yl]phenyl]-3-[1-(hydroxymethyl)cyclopropyl]urea] | 17.6
13 | C[C@H]1COCCN1c1cc(C2(S(=O)(=O)c3ccccc3)CCCC2)nc(-c2ccc(NC(=O)NC3CC3)cc2)n1 [Example 36bw, 1-[4-[4-[1-(benzenesulfonyl)cyclopentyl]-6-[(3S)-3-methylmorpholin-4-yl]pyrimidin-2-yl]phenyl]-3-cyclopropylurea] | 9.09
14 | C[C@H]1COCCN1c1cc(C2(S(=O)(=O)c3ccccc3)CCCC2)nc(-c2ccc(NC(=O)NCCO)cc2)n1 [Example 36bx, 1-[4-[4-[1-(benzenesulfonyl)cyclopentyl]-6-[(3S)-3-methylmorpholin-4-yl]pyrimidin-2-yl]phenyl]-3-(2-hydroxyethyl)urea] | 2.69
15 | C[C@H]1COCCN1c1cc(C2(S(=O)(=O)c3ccccc3)CCCC2)nc(-c2ccc(NC(=O)NCCCO)cc2)n1 [Example 36by, 1-[4-[4-[1-(benzenesulfonyl)cyclopentyl]-6-[(3S)-3-methylmorpholin-4-yl]pyrimidin-2-yl]phenyl]-3-(3-hydroxypropyl)urea] | 12
16 | C[C@H]1COCCN1c1cc(C2(S(=O)(=O)c3ccccc3)CCCC2)nc(-c2ccc(NC(=O)NCCC#N)cc2)n1 [Example 36bz, 1-[4-[4-[1-(benzenesulfonyl)cyclopentyl]-6-[(3S)-3-methylmorpholin-4-yl]pyrimidin-2-yl]phenyl]-3-(2-cyanoethyl)urea] | 14.3
17 | C[C@H]1COCCN1c1cc(C2(S(=O)(=O)CCCO)CC2)nc(-c2ccc(NC(=O)NCc3ncc[nH]3)cc2)n1 [Example 36c, 1-[4-[4-[1-(3-hydroxypropylsulfonyl)cyclopro-pyl]-6-[(3S)-3-methylmorpholin-4-yl]pyrimidin-2-yl]phenyl]-3-(1H-imidazol-2-ylmethyl)urea] | 114
18 | CNC(=O)Nc1ccc(-c2nc(N3CCOC[C@@H]3C)cc(C3(S(=O)(=O)CCCO)CCOCC3)n2)cc1 [Example 36ca, 1-[4-[4-[4-(3-hydroxypropylsulfonyl)oxan-4-yl]-6-[(3S)-3-methylmorpholin-4-yl]pyrimidin-2-yl]phenyl]-3-methylurea] | 310
19 | CCNC(=O)Nc1ccc(-c2nc(N3CCOC[C@@H]3C)cc(C3(S(=O)(=O)CCCO)CCOCC3)n2)cc1 [Example 36cb, 1-ethyl-3-[4-[4-[4-(3-hydroxypropylsulfonyl)oxan-4-yl]-6-[(3S)-3-methylmorpholin-4-yl]pyrimidin-2-yl]phenyl]urea] | 163
20 | C[C@H]1COCCN1c1cc(C2(S(=O)(=O)CCCO)CCOCC2)nc(-c2ccc(NC(=O)NC3CC3)cc2)n1 [Example 36cc, 3-cyclopropyl-1-[4-[4-[4-(3-hydroxypropylsulfonyl)oxan-4-yl]-6-[(3S)-3-methylmorpholin-4-yl]pyrimidin-2-yl]phenyl]urea] | 129

More lines, in order of falling IC50, values ahead:

Row | IC50 [nM] | SMILES
21 | 2.64 | C[C@H]1COCCN1c1cc(C2(S(=O)(=O)c3ccccc3)CCC2)nc(-c2ccc(NC(=O)Nc3cnn(C)c3)cc2)n1 [Example 36bv, 1-[4-[4-[1-(benzenesulfonyl)cyclobutyl]-6-[(3S)-3-methylmorpholin-4-yl]pyrimidin-2-yl]phenyl]-3-(1-methylpyrazol-4-yl)urea]
22 | 2.58 | C[C@H]1COCCN1c1cc(C2(S(=O)(=O)c3ccccc3)CC2)nc(-c2ccc(NC(=O)NC3CCC3)cc2)n1 [Example 36bd, 1-[4-[4-[1-(benzenesulfonyl)cyclopropyl]-6-[(3S)-3-methylmorpholin-4-yl]pyrimidin-2-yl]phenyl]-3-cyclobutylurea]
23 | 2.31 | CCCNC(=O)Nc1ccc(-c2nc(N3CCOC[C@@H]3C)cc(C3(S(=O)(=O)c4ccccc4)CC3)n2)cc1 [Example 36bi, 3-[4-[4-[1-(benzenesulfonyl)cyclopropyl]-6-[(3S)-3-methylmorpholin-4-yl]pyrimidin-2-yl]phenyl]-1-propylurea]
24 | 1.98 | C[C@H]1COCCN1c1cc(C2(S(=O)(=O)c3ccccc3)CC2)nc(-c2ccc(NC(=O)NC3COC3)cc2)n1 [Example 36bp, 1-[4-[4-[1-(benzenesulfonyl)cyclopropyl]-6-[(3S)-3-methylmorpholin-4-yl]pyrimidin-2-yl]phenyl]-3-(oxetan-3-yl)urea]
25 | 1.93 | C[C@H]1COCCN1c1cc(C2(S(=O)(=O)c3ccccc3)CC2)nc(-c2ccc(NC(=O)NCCC#N)cc2)n1 [Example 36bm, 1-[4-[4-[1-(benzenesulfonyl)cyclopropyl]-6-[(3S)-3-methylmorpholin-4-yl]pyrimidin-2-yl]phenyl]-3-(2-cyanoethyl)urea]
26 | 1.88 | C[C@H]1COCCN1c1cc(C2(S(=O)(=O)c3ccccc3)CC2)nc(-c2ccc(NC(=O)Nc3cnn(C)c3)cc2)n1 [Example 36br, 1-[4-[4-[1-(benzenesulfonyl)cyclopropyl]-6-[(3S)-3-methylmorpholin-4-yl]pyrimidin-2-yl]phenyl]-3-(1-methylpyrazol-4-yl)urea]
27 | 1.79 | C[C@H]1COCCN1c1cc(C2(S(=O)(=O)CCCO)CC2)nc(-c2ccc(NC(=O)Nc3ncns3)cc2)n1 [Example 36b, 1-[4-[4-[1-(3-hydroxypropylsulfonyl)cyclopro-pyl]-6-[(3S)-3-methylmorpholin-4-yl]pyrimidin-2-yl]phenyl]-3-(1,2,4-thiadiazol-5-yl)urea]
28 | 1.31 | C[C@H]1COCCN1c1cc(C2(S(=O)(=O)c3ccccc3)CC2)nc(-c2ccc(NC(=O)Nc3ncns3)cc2)n1 [Example 36bq, 1-[4-[4-[1-(benzenesulfonyl)cyclopropyl]-6-[(3S)-3-methylmorpholin-4-yl]pyrimidin-2-yl]phenyl]-3-(1,2,4-thiadiazol-5-yl)urea]
29 | 1.18 | CNC(=O)Nc1ccc(-c2nc(N3CCOC[C@@H]3C)cc(C3(S(=O)(=O)c4ccccc4)CCC3)n2)cc1 [Example 36bu, 1-[4-[4-[1-(benzenesulfonyl)cyclobutyl]-6-[(3S)-3-methylmorpholin-4-yl]pyrimidin-2-yl]phenyl]-3-methylurea]
30 | 1.17 | C[C@H]1COCCN1c1cc(C2(S(C)(=O)=O)CC2)nc(-c2ccc(NC(=O)Nc3nccs3)cc2)n1 [Example 36ay, 1-[4-[4-[(3S)-3-methylmorpholin-4-yl]-6-(1-methylsulfonylcyclopropyl)pyri-midin-2-yl]phenyl]-3-(1,3-thiazol-2-yl)urea]
